From patent publication US11213567B2, “ZAG-derived peptide and use thereof” (L&C Bio Co., LTD., priority 2017, dated 2022)

Assays:
IL-6 = assay: Atopic dermatitis efficacy test using macrophages (RAW 264.7): IL-6 released after LPS, ELISA; format: cell-based, mouse; design: key to RAW 264.7 (mouse) IL-6: •: have statistical significance, determining as effective, compared with the positive control; settings: for IL-6 concentration released in cell culture medium: Example 2-1, FIG. 2A, RAW 264.7, 1 μg/mL 24 hours, LPS 0.1 μg/mL 24 hours, compared with positive control (Pos); for RAW 264.7 (mouse) IL-6: 1 μg/mL for 24 hours, then LPS 0.1 μg/mL 24 hours
Method: (§1) To select an amino acid sequence corresponding to a key active site of ZAG having efficacy in the alleviation of atopic symptoms from 18 peptide candidate groups, an atopic dermatitis efficacy test was performed. Five types of immune-related cells were treated with ZAG peptide candidate groups (Z1-Z18, SEQ ID NOs: 1 to 18, respectively) and the ZAG protein (Z0, SEQ ID NOs: 19) at a concentration of 1 μg/mL for 24 hours, and then treated with a stimulator suitable for each cell line for the listed time to confirm an immune response. The experiment was performed with a group treated with only a stimulator as a positive control experimental group, and a group treated with only a vehicle without a stimulator as a negative control experimental group (Table 2: Efficacy test method for atopic dermatitis). An inflammatory response-related enzyme used as a stimulator is produced by immune cells, and histamine initiates an inflammatory response. The immune cells migrating to a damaged region release cytokines such as tumor necrosis factor-α (TNF-α) and interleukin-6 (IL-6) to directly lyse foreign invasive substances or collect other immune cells to initiate an inflammatory response. An efficacy test using inflammation-inducing materials, interferon-γ and skin inflammation-related factor CCL-17/thymus- and activation-regulated chemokine (TARC) was also performed to confirm an immune response.
Macrophages (RAW 264.7 cells) were treated with a stimulator LPS at a concentration of 0.1 μg/mL for 24 hours, and then the concentration of IL-6 released in a cell culture medium was confirmed by ELISA assay.
(§2) Various types of immune cells were treated with each of Z20mer-1, Z20mer-2, Z20mer-3, Z15mer-1, Z15mer-2, Z15mer-3 and Z15mer-4 at a concentration of 1 μg/mL for 24 hours, and then treated with a stimulator suitable for each cell line for the listed time to confirm an immune response. The atopic dermatitis efficacy test method was performed by the same method as described in Example 1 and Table 2.
(§3) The experiment was performed with experimental groups: 1) negative control: vehicle-treated group (Neg), 2) positive control: a group treated with only a stimulator (Pos), and 3) experimental group: groups treated with a stimulator and ZAG3 or a ZAG3-derived oligopeptide (Z20mer-1, Z20mer-2, Z20mer-3, Z15mer-1, Z15mer-2, Z15mer-3 or Z15mer-4). Concentrations were measured from cell culture by ELISA.
Macrophages (RAW 264.7 cells) were treated with a stimulator LPS at a concentration of 0.1 μg/mL for 24 hours, and then a concentration of IL-6 released in a cell culture medium was confirmed by ELISA assay.

IL-4 = assay: Atopic dermatitis efficacy test using T lymphocytes: IL-4 released after IL-2, ELISA; format: cell-based, human; design: key to T lymphocyte (human) IL-4: •: have statistical significance, determining as effective, compared with the positive control; settings: for IL-4 concentration released in cell culture medium: Example 1-5, FIG. 1E, IL-2 50 ng/mL 12 hours; for IL-4 concentration released in cell culture medium / IL-4: T lymphocytes, 1 μg/mL 24 hours; for T lymphocyte (human) IL-4: 1 μg/mL for 24 hours, then IL-2 50 ng/mL 12 hours; for IL-4: Example 2-5, FIG. 2E, compared with positive control (Pos)
Method: as §1
An atopic dermatitis efficacy test using T lymphocytes was performed with six peptide candidate groups (Z3, Z4, Z5, Z12, Z14, and Z15), which were determined to have efficacy from the results of Examples 1-1 to 1-4 described above. T lymphocytes were treated with 50 ng/mL of IL-2 as a stimulator for 12 hours, and a concentration of IL-4 released in a cell culture medium was confirmed by ELISA assay.
as §2, §3
An experiment was performed on T lymphocytes using the target peptides selected through the previous experiment. As compared with the positive control (Pos), in all of the oligopeptide-treated groups (Z20mer-1, Z20mer-2, Z20mer-3, Z15mer-1, Z15mer-2, Z15mer-3, and Z15mer-4), IL-4 was reduced (FIG. 2E).

CCL17/TARC = assay: Atopic dermatitis efficacy test using keratinocytes (HaCaT): CCL17/TARC released after TNF-α and IFN-γ, ELISA; format: cell-based, human; design: key to HaCaT (human) CCL17/TARC: •: have statistical significance, determining as effective, compared with the positive control; settings: for CCL17/TARC concentration released in cell culture medium: Example 2-3, FIG. 2C, HaCaT, 1 μg/mL 24 hours, TNF-α 0.4 μg/mL and IFN-γ 0.4 μg/mL 24 hours, compared with positive control (Pos); for HaCaT (human) CCL17/TARC: 1 μg/mL for 24 hours, then TNF-α 0.4 μg/mL, IFN-γ 0.4 μg/mL 24 hours
Method: as §1
Keratinocytes (HaCaT cells) were treated with 0.4 μg/mL of TNF-α and 0.4 μg/mL of IFN-γ as stimulators for 24 hours, and then a concentration of CCL17/TARC released in a cell culture medium was confirmed by ELISA assay.
as §2, §3

Histamine = assay: Atopic dermatitis efficacy test using mast cells (RBL-2H3): histamine released after PMA and A23187, ELISA; format: cell-based, rat; design: key: •: have statistical significance, determining as effective, compared with the positive control; settings: 1 μg/mL for 24 hours, then PMA 1 μg/mL, A23187 1 μg/mL 12 hours
Method: as §1
Mast cells (RBL-2H3) were treated with 1 μg/mL of PMA and 1 μg/mL of A23187 as stimulators for 12 hours, and a concentration of histamine released in a cell culture medium was confirmed by ELISA assay.
as §2, §3
Mast cells (RBL-2H3) were treated with 1 μg/mL of PMA and 1 μg/mL of A23187 as simulators for 12 hours, and then a concentration of histamine released in a cell culture medium was confirmed by ELISA assay. As compared with the positive control (Pos), in all of the oligopeptide-treated groups, the histamine release was reduced (FIG. 2B).

IgE = assay: Atopic dermatitis efficacy test using B lymphocytes (RPMI 1788): IgE released after LPS, ELISA; format: cell-based, human; design: key: •: have statistical significance, determining as effective, compared with the positive control; settings: then LPS 0.1 μg/mL 24 hours
Method: as §1
(§4) B lymphocytes (RPMI 1788) were treated with 0.1 μg/mL of LPS as a stimulator for 24 hours, and a concentration of IgE released in a cell culture medium was confirmed by ELISA assay.
as §2, §3
as §4, with “and then” for “and”, “assay. As compared with the positive control (Pos), in all of the oligopeptide-treated groups, IgE was reduced (FIG. 2D).” for “assay.”

[1] = Table 3, 1 μg/mL for 24 hours, vs stimulator only
[2] = Table 5, 1 μg/mL for 24 hours, vs positive control

Row | Molecule | IL-6 concentration released in cell culture medium (IL-6) | RAW 264.7 (mouse) IL-6 (IL-6; Table 3, vs stimulator only) | IL-4 concentration released in cell culture medium (IL-4) | T lymphocyte (human) IL-4 (IL-4; Table 3, vs stimulator only) | CCL17/TARC concentration released in cell culture medium (CCL17/TARC) | HaCaT (human) CCL17/TARC (CCL17/TARC; Table 3, vs stimulator only) | RBL-2H3 (rat) Histamine (Histamine; Table 3, vs stimulator only) | B lymphocyte (human) IgE (IgE; [1]) | RAW 264.7 (mouse) IL-6 (IL-6; Table 5, vs positive control) | IL-4 (IL-4) | T lymphocyte (human) IL-4 (IL-4; Table 5, vs positive control) | HaCaT (human) CCL17/TARC (CCL17/TARC; Table 5, vs positive control) | RBL-2H3 (rat) Histamine (Histamine; Table 5, vs positive control) | B lymphocyte (human) IgE (IgE; [2])
1 | Z3: ZAG protein-derived peptide, SEQ ID NO. 3: EDWKQDSQLQKAREDIFMETLKDIVEYYND (ZAG protein-derived peptide) | significantly decreased | • | significantly decreased | • | significantly decreased | • | • | • |  |  |  |  |  | 
2 | Z4: ZAG protein-derived peptide, SEQ ID NO. 4: SNGSHVLQGRFGCEIENNRSSGAFWKYYYD (ZAG protein-derived peptide) |  | • | significantly decreased | • |  | • | • | • |  |  |  |  |  | 
3 | Z5: ZAG protein-derived peptide, SEQ ID NO. 5: GKDYIEFNKEIPAWVPFDPAAQITKQKWEA (ZAG protein-derived peptide) |  | • | significantly decreased | • |  | • | • | • |  |  |  |  |  | 
4 | Z14: ZAG protein-derived peptide, SEQ ID NO. 14: IFMETLKDIVEYYNDSNGSHVLQGRFGCEI (ZAG protein-derived peptide) |  | • | significantly decreased | • |  | • | • | • |  |  |  |  |  | 
5 | Z15mer-3: ZAG3-derived oligopeptide, SEQ ID NO. 25: KAREDIFMETLKDIV (ZAG protein-derived peptide) | significantly decreased |  |  |  | significantly decreased |  |  |  | • | reduced | • | • | • | •
6 | Z15mer-4: ZAG3-derived oligopeptide, SEQ ID NO. 26: IFMETLKDIVEYYND (ZAG protein-derived peptide) | significantly decreased |  |  |  | significantly decreased |  |  |  | • | reduced | • | • | • | •
7 | Z0: ZAG protein, entire sequence of 298 amino acids (GenBank: AAH05306.1; SEQ ID NO: 19) (protein, listed as Homo sapiens) MVRMVPVLLSLLLLLGPAVPQENQDGRYSLTYIYTGLSKHVEDVPAFQALGSLNDLQFFRYNSKDRKSQPMGLWRQVEGMEDWKQDSQLQKAREDIFMETLKDIVEYYNDSNGSHVLQGRFGCEIENNRSSGAFWKYYYDGKDYIEFNKEIPAWVPFDPAAQITKQKWEAEPVYVQRAKAYLEEECPATLRKYLKYSKNILDRQDPPSVVVTSHQAPGEKKKLKCLAYDFYPGKIDVHWTRAGEVQEPELRGDVLHNGNGTYQSWVVVAVPPQDTAPYSCHVQHSSLAQPLVVPWEAS |  | • |  | • |  | • | • | • |  |  |  |  |  | 
